3 molecules from patent publication US20190119284A1, “ErbB Inhibitors and Uses Thereof” (The Regents of the University of California, priority 2016, published 2019) can be followed below.

The target in one assay is ABL1 (Homo sapiens, UniProt P00519). Briefly: Nanosyn in vitro kinase profiling: ABL1. Format: biochemical. Particulars: for inhibition at 1 µM: compound at 1 μM. As for the experimental part:
(§1) This was confirmed by in vitro profiling against a panel of kinases, with compound 2 only showing potent inhibition of EGFR and Ab1 (Table 2).
(§2) In vitro Kinome Screen. In vitro profiling of compound 2 at 100 nM was conducted by Nanosyn.

The next assay has as its target T1, SGK1 (Homo sapiens, UniProt O00141).
T1 sequence (O00141 1-431): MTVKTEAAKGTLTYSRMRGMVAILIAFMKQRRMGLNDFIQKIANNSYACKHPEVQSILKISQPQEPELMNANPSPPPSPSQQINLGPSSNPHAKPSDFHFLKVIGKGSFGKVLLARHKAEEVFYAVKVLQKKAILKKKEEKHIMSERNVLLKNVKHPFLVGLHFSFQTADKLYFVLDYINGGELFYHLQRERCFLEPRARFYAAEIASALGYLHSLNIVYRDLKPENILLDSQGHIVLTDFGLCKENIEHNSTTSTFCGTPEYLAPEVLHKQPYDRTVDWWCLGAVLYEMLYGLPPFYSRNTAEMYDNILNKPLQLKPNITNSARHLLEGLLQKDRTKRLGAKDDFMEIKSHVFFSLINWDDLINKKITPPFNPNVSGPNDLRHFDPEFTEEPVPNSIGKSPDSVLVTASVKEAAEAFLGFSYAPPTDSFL
Briefly: Nanosyn in vitro kinase profiling: SGK1. The format is biochemical. Particulars: for inhibition at 1 µM: compound at 1 μM. As for the experimental part: as §1, §2

In the next assay the target is T2, PDK1 (Homo sapiens, UniProt O15530).
T2 sequence (O15530 1-556): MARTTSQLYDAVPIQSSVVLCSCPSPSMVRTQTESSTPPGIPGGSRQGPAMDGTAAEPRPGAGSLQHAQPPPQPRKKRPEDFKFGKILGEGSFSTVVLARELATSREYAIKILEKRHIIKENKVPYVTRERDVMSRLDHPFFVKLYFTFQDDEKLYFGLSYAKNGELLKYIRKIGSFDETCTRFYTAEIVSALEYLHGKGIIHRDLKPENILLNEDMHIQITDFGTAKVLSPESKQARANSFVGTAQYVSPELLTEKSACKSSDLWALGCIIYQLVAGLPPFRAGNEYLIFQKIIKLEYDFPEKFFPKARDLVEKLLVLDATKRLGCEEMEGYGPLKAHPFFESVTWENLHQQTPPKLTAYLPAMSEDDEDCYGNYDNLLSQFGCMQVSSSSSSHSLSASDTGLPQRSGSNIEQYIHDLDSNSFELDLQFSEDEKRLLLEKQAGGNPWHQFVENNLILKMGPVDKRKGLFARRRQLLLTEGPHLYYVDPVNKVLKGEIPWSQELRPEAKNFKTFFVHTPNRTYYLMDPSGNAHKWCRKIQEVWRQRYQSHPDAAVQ
The assay can be described thus: Nanosyn in vitro kinase profiling: PDK1. Format: biochemical. Particulars: for inhibition at 1 µM: compound at 1 μM. As for the experimental part:
as §1, §2

For another assay, the target named is PIM-1-KINASE (Homo sapiens, UniProt P11309). Briefly: Nanosyn in vitro kinase profiling: PIM-1-KINASE. The format is biochemical. Particulars: for inhibition at 1 µM: compound at 1 μM. As for the experimental part: as §1, §2
Chain of PIM-1-KINASE (P11309 whole entry): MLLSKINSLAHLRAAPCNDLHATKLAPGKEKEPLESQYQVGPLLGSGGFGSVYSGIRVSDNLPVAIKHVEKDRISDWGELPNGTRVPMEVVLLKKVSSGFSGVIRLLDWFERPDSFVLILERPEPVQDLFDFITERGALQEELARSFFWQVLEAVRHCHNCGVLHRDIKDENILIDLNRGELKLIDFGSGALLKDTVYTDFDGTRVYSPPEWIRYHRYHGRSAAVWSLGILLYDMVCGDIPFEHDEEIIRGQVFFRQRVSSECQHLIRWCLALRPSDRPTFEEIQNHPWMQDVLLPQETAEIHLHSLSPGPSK
Another assay concerns the target T3, Axl+ Ba/F3 cells (Homo sapiens, UniProt P30530).
T3 sequence (P30530 1-894): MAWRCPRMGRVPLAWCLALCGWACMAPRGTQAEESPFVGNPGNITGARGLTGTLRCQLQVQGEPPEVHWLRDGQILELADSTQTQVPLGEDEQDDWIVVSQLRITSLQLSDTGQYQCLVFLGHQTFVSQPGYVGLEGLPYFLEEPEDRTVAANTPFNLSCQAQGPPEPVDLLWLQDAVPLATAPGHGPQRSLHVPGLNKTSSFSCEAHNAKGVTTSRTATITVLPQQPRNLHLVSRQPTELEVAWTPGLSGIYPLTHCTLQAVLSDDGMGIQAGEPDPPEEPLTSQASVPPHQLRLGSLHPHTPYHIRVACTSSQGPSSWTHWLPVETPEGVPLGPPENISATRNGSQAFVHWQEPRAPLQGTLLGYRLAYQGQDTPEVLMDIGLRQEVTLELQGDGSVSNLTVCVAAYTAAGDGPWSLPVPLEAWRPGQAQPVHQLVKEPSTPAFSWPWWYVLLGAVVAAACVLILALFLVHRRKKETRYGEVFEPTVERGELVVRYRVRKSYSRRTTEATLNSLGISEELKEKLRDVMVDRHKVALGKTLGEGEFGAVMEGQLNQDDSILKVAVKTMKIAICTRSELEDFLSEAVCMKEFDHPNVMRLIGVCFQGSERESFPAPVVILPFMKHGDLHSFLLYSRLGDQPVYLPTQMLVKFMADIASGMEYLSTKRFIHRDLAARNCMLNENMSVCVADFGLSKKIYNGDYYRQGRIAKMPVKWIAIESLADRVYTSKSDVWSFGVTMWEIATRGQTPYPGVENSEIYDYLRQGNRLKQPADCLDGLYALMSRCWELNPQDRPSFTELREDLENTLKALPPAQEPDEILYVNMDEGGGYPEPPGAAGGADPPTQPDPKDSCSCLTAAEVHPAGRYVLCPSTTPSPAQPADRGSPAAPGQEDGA
The assay can be described thus: Ba/F3 proliferation assay, Axl+. The format is cell-based. Particulars: Table 4; ± S.D., n = 3; 48 h Cell Titer Glo; read-out: IC50, Axl. The gist of the method: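 Ba/F3 cells transduced with Axl and selected for IL-3-independent growth. Cells combined with drug dilutions, and with IL-3 (10 ng/mL) or NRG (6.25 ng/mL) where needed, for 48 h at 37 °C. CellTiter-Glo read, normalized to DMSO, fitted with variable-slope log(inhibitor) regression.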
Background: ATP-based viability assays read luminescence as a measure of living cells.

Chain of ABL1 (P00519 whole entry): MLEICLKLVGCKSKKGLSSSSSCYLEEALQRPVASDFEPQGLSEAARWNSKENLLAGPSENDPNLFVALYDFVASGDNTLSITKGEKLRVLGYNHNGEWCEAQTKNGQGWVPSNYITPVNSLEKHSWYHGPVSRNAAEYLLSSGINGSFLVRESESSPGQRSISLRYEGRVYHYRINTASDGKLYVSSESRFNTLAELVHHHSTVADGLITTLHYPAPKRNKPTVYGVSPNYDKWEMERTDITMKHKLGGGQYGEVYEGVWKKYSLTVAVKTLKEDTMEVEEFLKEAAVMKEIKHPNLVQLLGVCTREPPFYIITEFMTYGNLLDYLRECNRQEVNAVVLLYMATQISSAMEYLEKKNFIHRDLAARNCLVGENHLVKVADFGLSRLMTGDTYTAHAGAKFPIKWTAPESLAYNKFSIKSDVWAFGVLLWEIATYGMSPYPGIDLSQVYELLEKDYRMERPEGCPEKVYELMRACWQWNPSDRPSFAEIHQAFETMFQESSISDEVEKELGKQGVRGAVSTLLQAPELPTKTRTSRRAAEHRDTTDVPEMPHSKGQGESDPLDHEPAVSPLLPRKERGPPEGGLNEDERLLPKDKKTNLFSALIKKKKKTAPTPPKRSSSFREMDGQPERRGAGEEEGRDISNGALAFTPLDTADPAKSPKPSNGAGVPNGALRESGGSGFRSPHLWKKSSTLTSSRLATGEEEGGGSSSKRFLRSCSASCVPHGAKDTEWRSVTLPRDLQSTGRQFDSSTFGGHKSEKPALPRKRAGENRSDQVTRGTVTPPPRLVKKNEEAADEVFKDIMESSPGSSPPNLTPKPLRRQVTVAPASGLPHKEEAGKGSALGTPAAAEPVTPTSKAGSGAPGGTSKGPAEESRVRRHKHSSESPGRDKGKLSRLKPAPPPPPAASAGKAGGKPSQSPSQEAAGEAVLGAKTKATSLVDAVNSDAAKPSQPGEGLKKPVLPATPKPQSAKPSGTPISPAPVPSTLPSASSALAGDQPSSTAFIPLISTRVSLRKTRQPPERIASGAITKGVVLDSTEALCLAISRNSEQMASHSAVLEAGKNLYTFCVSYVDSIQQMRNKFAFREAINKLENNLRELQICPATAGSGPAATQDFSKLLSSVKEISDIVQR

As a reminder, the inhibition is the drop in the measured response relative to a control, in per cent. Low readings indicate a response near the control, high ones a response far below the control. For the molecule `COc1ccc(-c2ccco2)cc1Nc1ncnc2[nH]nc(-c3ccco3)c12` [compound 2, 3-(furan-2-yl)-N-(5-(furan-2-yl)-2-methoxyphenyl)-1H-pyrazolo[3,4-d]pyrimidin-4-amine], the inhibition at 0.1 µM worked out at 95.2% against ABL1 (compound at 100 nM), 14.4% against SGK1 (compound at 100 nM), 4.58% against PDK1 (compound at 100 nM) and 4.08% at PIM-1-KINASE (compound at 100 nM). Besides, the inhibition at 1 µM at ABL1 was 97.2%; on SGK1, 53.4%; at PDK1, 18.3%; against PIM-1-KINASE, 8.71%.

Take `COc1ccc(-c2ccoc2)cc1Nc1ncnc2[nH]cc(-c3cc[nH]n3)c12` [compound 3, N-(5-(furan-3-yl)-2-methoxyphenyl)-5-(1H-pyrazol-3-yl)-7H-pyrrolo[2,3-d]pyrimidin-4-amine]: the inhibition at 1 µM at ABL1 stood at 98%; at SGK1, 31%; on PDK1, 5%; against PIM-1-KINASE, 7%. Moreover, the GI50 on Axl+ Ba/F3 cells was 1.17 ± 0.106 µM.

`CS(=O)(=O)CCNCc1ccc(-c2ccc3ncnc(Nc4ccc(OCc5cccc(F)c5)c(Cl)c4)c3c2)o1` [lapatinib]: at Axl+ Ba/F3 cells, the GI50 is greater than 3.33 µM.
